In US20020128189A1, “Ubiquitination of the transcription factor E2A” (President and Fellows of Harvard College, a Massachusetts …, priority 1996, published 2002):
Square brackets hold non-standard residues; d marks the D form. Peptide text beside a SMILES is read from it. * marks the point of attachment. Nle = CCCC[C@H](N)C(=O)O; Nva = CCC[C@H](N)C(=O)O; Cbz = O=C(OCc1ccccc1)*

Legend:
ovalbumin degradation = conditions: Rock et al., cited from earlier work; for IC50: read-out: concentration causing 50% inhibition of ovalbumin degradation
[1] = tested on: p27 inhibitor of cyclin-dependent kinases; conditions: cited from earlier work
[2] = tested on: NF-kB precursor protein p105; conditions: cited from earlier work
20S proteasome = target: T1, 20S proteasome (Homo sapiens, UniProt P28074); conditions: cited from earlier work
T1 sequence (P28074 60-263): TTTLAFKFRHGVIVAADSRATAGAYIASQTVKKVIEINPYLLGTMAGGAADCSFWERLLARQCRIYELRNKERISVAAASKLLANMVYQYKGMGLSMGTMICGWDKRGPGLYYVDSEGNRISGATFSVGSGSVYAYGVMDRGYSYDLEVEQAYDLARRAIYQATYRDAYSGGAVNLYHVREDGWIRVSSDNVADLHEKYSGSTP

human E12 = assay: Pulse-chase analysis of E12 degradation in COS7 cells treated with proteasome/protease inhibitors; format: cell-based; conditions: 60 min pulse, 3 hour chase
Method: FIG. 2 is a bar graph representing the relative expression of E12 after treatment with the proteasome inhibitor MG132 and the protease inhibitor leupeptin, as follows. COS cells were electroporated with a human E12 expression plasmid. After electroporation (48 hours), cells were treated with either DMSO (a diluent for MG132), 50 μM MG132, or 1 μg/ml leupeptin for 1 hour. The cells were then pulse-chased with [^35S] methionine and the cell extracts were immunoprecipitated with anti-E12 antibody and analyzed by SDS-PAGE fluorography. Inhibitors were present throughout the entire pulse-chase period.
Cells in 100 mm dishes (either transfected cells 48 hours after transfection or stable cell lines at about 80% confluence) were starved in Met-free DMEM (supplemented with 5% dialyzed fetal bovine serum) for 60 minutes at 37° C. Cells were then pulse-labeled at 37° C. with 100 μCi/ml [^35S]met for 60 minutes at 37° C. Cells were chased in warm DMEM supplemented with 100 μg/ml Met. For the proteasome inhibitor experiment, the inhibitor MG132 […] was added 1 hour before pulse-chase and was present throughout the entire period. […] Incorporation of ^35S into the total protein pool was determined by trichloroacetic acid (TCA) precipitation. […] The bands were measured using a PhosphorImager (Molecular Dynamics). […]

In the case of `CSCC[C@@H](C=O)NC(=O)[C@H](CC(C)C)NC(=O)[C@H](CC(C)C)NC(C)=O` [LLM, N-acetyl-L-leucinyl-L-leucinyl-methional] (Ac-Leu-Leu-Met-aldehyde), the IC50 (ovalbumin degradation) is listed as > 100000 nM.
For `CCCC[C@@H](C=O)NC(=O)[C@H](CC(C)C)NC(=O)[C@H](CC(C)C)NC(C)=O` [MG101] (Ac-Leu-Leu-[Nle]-aldehyde), the “effect on degradation of the p27 inhibitor of cyclin-dependent kinases” value [1] is listed as “inhibit the degradation”, the “effect on processing of the NF-kB precursor protein p105” value [2] is listed as “block the processing” and the “inhibition of the chymotryptic site on the 20S proteasome” value (“inhibition of the chymotryptic site” below) (20S proteasome) is listed as “potent inhibitors”.
For `CCC[C@@H](C=O)NC(=O)[C@H](CC(C)C)NC(=O)[C@H](CC(C)C)NC(=O)OCc1ccccc1` [MG115, N-carbobenzoxyl-L-leucinyl-L-leucinyl-L-norvalinal] (Cbz-Leu-Leu-[Nva]-aldehyde), the “inhibition of the chymotryptic site” value (20S proteasome) is given as “potent inhibitors”, the “potency relative to LLnL (ovalbumin proteolysis)” value (ovalbumin degradation) is given as “approximately 5 fold” and the IC50 (ovalbumin degradation) is given as 400 nM.
In the case of `CC(C)C[C@@H](C=O)NC(=O)[C@H](CC(C)C)NC(=O)[C@H](CC(C)C)NC(=O)OCc1ccccc1` [MG132] (Cbz-Leu-Leu-Leu-aldehyde), the “effect on degradation of the p27 inhibitor of cyclin-dependent kinases” value [1] is given as “inhibit the degradation”, the “effect on processing of the NF-kB precursor protein p105” value [2] is given as “block the processing” and the “inhibition of the chymotryptic site” value (20S proteasome) is given as “potent inhibitors”. For the same molecule, the “E12 protein stability (effect on E12 degradation)” value (human E12; 50 μM MG132 added 1 hour before and present throughout) was “stabilized”.
In the case of `CC(=O)N[C@@H](CC(C)C)C(=O)N[C@@H](CC(C)C)C(=O)N[C@H](C=O)CCCNC(=N)N` [leupeptin], the “E12 protein stability (effect on E12 degradation)” value (human E12; leupeptin 1 μg/ml added 1 hour before and present throughout) is reported as “no effect”.
